In patent US7381723B2, “Azabicyclylmethyl derivatives of 7,8-dihydro-1,6,9,-trioxa-3-aza-cyclopenta[a]naphthalene as 5-HT1A antagonists” (Wyeth, priority 2001, dated 2008):

What was measured:
human 5-HT1A receptors = molecular target: T1, human 5-HT1A receptors (Homo sapiens, UniProt P08908); assay: [3H] 8-OH-DPAT displacement from 5-HT1A receptor (CHO cells); type: binding; settings: displacement of [3H] 8-OH-DPAT, CHO cells stably transfected with human 5-HT1A; read-out: 5-HT1A Receptor Affinity KI
T1 construct: expressed in transfected cells; host or cells: CHO cells
T1 sequence (P08908 1-422): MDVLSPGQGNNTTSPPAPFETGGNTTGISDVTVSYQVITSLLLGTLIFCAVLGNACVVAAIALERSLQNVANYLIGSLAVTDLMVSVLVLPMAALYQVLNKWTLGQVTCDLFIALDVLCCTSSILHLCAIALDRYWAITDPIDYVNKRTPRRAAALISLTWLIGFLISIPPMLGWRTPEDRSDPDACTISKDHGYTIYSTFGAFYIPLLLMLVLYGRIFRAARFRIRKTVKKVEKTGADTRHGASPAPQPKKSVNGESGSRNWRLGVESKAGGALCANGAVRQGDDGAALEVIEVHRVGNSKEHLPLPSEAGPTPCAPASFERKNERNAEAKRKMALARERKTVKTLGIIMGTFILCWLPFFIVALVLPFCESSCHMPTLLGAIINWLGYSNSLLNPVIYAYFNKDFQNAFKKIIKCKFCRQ
Source text: High affinity for the serotonin 5-HT1A receptor was established by testing the claimed compound's ability to displace [^3H] 8-OH-DPAT (dipropylaminotetralin) from the 5-HT1A serotonin receptor following a modification of the procedure of Hall et al., J. Neurochem. 44, 1685 (1985) which utilizes CHO cells stably transfected with human 5-HT1A receptors.

[1] = molecular target: T2, cloned human 5-HT1A receptors (Homo sapiens, UniProt P08908); assay: 35S-GTPγS binding assay, antagonist activity versus 8-OH-DPAT; type: biochemical; settings: reversal of 8-OH-DPAT effect on 35S-GTPγS binding; for IC50: read-out: 5-HT1A Function IC50
T2 construct: expressed in transfected cells
T2 sequence (P08908 1-422): T1 sequence (P08908 1-422)
Procedure: Antagonist activity at 5-HT1A receptors was established by using a ^35S-GTPγS binding assay similar to that used by Lazareno and Birdsall (Br. J. Pharmacol. 109: 1120, 1993), in which the test compound's ability to affect the binding of ^35S-GTPγS to membranes containing cloned human 5-HT1A receptors was determined. Agonists produce an increase in binding whereas antagonists produce no increase but rather reverse the effects of the standard agonist 8-OH-DPAT. The test compound's maximum inhibitory effect is represented as the Imax, while its potency is defined by the IC50.

Row | Structure (SMILES) | melting point | Ki (human 5-HT1A receptors) | 5-HT1A Function Imax (maximum inhibitory effect) [1] | IC50 [1]
1 | Cc1nc2ccc3c(c2o1)OC(CN1C2CCC1CC(O)(c1ccccc1)C2)CO3 (stereo not drawn) [Example 1, 8-{[2-Methyl-7,8-dihydro[1,4]dioxino[2,3-g][1,3]benzoxazol-8-yl]methyl}-3-phenyl-8-azabicyclo[3.2.1]octan-3-ol] | 203 to 205 °C | 0.54 nM | 76% | 53 nM
2 | Cc1nc2ccc3c(c2o1)OC(CN1C2CCC1CC(O)(c1cccc(C(F)(F)F)c1)C2)CO3 (stereo not drawn) [Example 2, 8-{[2-Methyl-7,8-dihydro[1,4]dioxino[2,3-g][1,3]benzoxazol-8-yl]methyl}-3-[3-(trifluoromethyl)phenyl]-8-azabicyclo[3.2.1]octan-3-ol] | 148 to 150 °C | 0.77 nM | – | –
3 | Cc1nc2ccc3c(c2o1)OC(CN1C2CCC1CC(O)(c1ccc4ccccc4c1)C2)CO3 (stereo not drawn) [Example 3, 8-{[2-Methyl-7,8-dihydro[1,4]dioxino[2,3-g][1,3]benzoxazol-8-yl]methyl}-3-(2-naphthyl)-8-azabicyclo[3.2.1]octan-3-ol] | – | 3.71 nM | 95% | 27 nM
